Data on four compounds can be found in ChEMBL document CHEMBL4004802, “α-Glucosidase Inhibitors from Malbranchea flavorosea” (J Nat Prod, 2017).

Test [1] relates to Mus musculus. The test is described as follows: Antihyperglycemic activity in nicotinamide/streptozotocin-induced ICR mouse hyperglycemic model assessed as decrease in postprandial blood glucose levels at 5 mg/kg administered 30 mins followed by oral sucrose challenge measured after 30 to 120 mins by OSTT. The test is classed as functional, organism-based.
Test [2] can be described thus: Inhibition of Saccharomyces cerevisiae alpha-glucosidase using p-nitrophenyl-alpha-D-glucopyranoside as substrate after 30 mins.
For test [3], the system named is Mus musculus. The test is described as follows: Antihyperglycemic activity in ICR mouse assessed as decrease in postprandial blood glucose levels at 5 mg/kg administered 30 mins followed by oral sucrose challenge measured after 30 to 120 mins by OSTT. The test is classed as functional, organism-based.
For test [4], the system named is Mus musculus. The test is described as follows: Antihyperglycemic activity in ICR mouse assessed as decrease in postprandial blood glucose levels at 3.2 to 31.6 mg/kg, po administered 30 mins followed by oral sucrose challenge measured after 30 to 120 mins by OSTT. It is filed as functional, organism-based.
Test [5] has as its system Mus musculus. The test is described as follows: Antihyperglycemic activity in nicotinamide/streptozotocin-induced ICR mouse hyperglycemic model assessed as decrease in postprandial blood glucose levels at 3.2 to 31.6 mg/kg, po administered 30 mins followed by oral sucrose challenge measured after 30 to 120 mins by OSTT. It is filed as functional, organism-based.

pIC50: −log10 of the molar value. Calls of active or inactive are those of the source. No cut-off for these calls is given here.

Turning to `C[C@H]1O[C@H](O[C@H]2[C@H](O)[C@@H](O)[C@@H](O[C@H]3[C@H](O)[C@@H](O)C(O)O[C@@H]3CO)O[C@@H]2CO)[C@H](O)[C@@H](O)[C@@H]1N[C@H]1C=C(CO)[C@@H](O)[C@H](O)[C@H]1O` (stereo partly drawn) [ACARBOSE], the outcome in the test with Mus musculus [1] and in the test with Mus musculus [3] was Active. Further, in test [2], the negative logarithm of the IC50 (pIC50) (usually the negative decadic logarithm of the IC50, by convention in mol/L) is 3.30.
Turning to `C[C@H](O)[C@H](O)C[C@H]1OCc2c(O)cccc21`, in test [2], the pIC50 is 2.65.
For `C=C1OC(=O)[C@]2([C@H](C)C=CC(=O)[C@@H]2O)[C@H]1O` [MASSARIGENIN C], the outcome with Mus musculus [4] and in the test with Mus musculus [5] was Active. Also, in test [2], the pIC50 was 2.90.
With `O=C1C=Cc2cccc(O)c2CO1`, in test [2], the pIC50 is 2.97.
